inhibition, IC50 and viability data for six compounds are collected here from ChEMBL document CHEMBL2346550, “Synthesis of novel azo compounds containing 5(4H)-oxazolone ring as potent tyrosinase inhibitors” (Bioorg Med Chem, 2013).

pIC50: −log10 of the molar value.

One series relates to B16-F10. The series is described as follows: Inhibition of melanin production in mouse B16F10 cells at 20 ug/ml after 72 hrs. The series is classed as functional. As to conditions: B16-F10, 72 h.
For another series, the target named is T1, Tyrosinase (Agaricus bisporus, UniProt O42713).
T1 sequence (O42713 whole entry): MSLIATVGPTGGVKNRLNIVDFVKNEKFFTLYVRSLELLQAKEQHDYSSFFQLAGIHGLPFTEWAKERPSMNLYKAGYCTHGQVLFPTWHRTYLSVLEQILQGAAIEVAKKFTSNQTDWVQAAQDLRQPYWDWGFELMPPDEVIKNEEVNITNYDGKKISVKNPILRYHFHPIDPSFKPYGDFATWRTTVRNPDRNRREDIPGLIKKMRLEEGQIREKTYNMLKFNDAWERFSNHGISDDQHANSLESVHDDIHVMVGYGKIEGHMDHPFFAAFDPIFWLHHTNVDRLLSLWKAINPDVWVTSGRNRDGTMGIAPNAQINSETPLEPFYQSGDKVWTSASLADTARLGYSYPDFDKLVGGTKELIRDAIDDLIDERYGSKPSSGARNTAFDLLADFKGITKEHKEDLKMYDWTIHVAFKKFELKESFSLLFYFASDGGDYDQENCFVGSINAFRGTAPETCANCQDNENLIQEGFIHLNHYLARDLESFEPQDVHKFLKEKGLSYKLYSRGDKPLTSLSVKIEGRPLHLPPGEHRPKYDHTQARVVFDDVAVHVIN
Briefly: Inhibition of diphenolase activity of mushroom tyrosinase assessed as decrease in L-DOPA chrome formation using L-DOPA as substrate preincubated with enzyme for 10 mins prior to substrate addition measured for 10 mins by spectrophotometric assay.

Series [1] in a line: Cytotoxicity against mouse B16F10 cells assessed as cell viability at 20 ug/ml after 72 hrs by micro-culture MTT assay. The series is classed as cell-based, B16-F10. As to conditions: read-out: Activity.

Consider `CC(=O)Oc1c(/N=N/c2ccc(C3=N/C(=C/c4ccc(F)cc4)C(=O)O3)cc2)ccc2ccccc12`, for which, in the series with B16-F10, 20 µg/mL produced 31.3% inhibition. In addition, the pIC50 at Tyrosinase is 5.36. Moreover, in series [1], the viability at 72 h, 20 ug/ml came to 72.1%.

In the series with B16-F10, `CC(=O)Oc1c(/N=N/c2ccc(C3=N/C(=C/c4ccc(OC(F)(F)F)cc4)C(=O)O3)cc2)ccc2ccccc12` came in with an inhibition at 20 µg/mL of 33.4%. Also, the pIC50 on Tyrosinase is 5.40. In addition, in series [1], the viability at 72 h, 20 ug/ml was found to be 73.5%.

`CC(=O)Oc1ccc2ccccc2c1/N=N/c1ccc(C2=N/C(=C/c3ccc(F)cc3)C(=O)O2)cc1`: 20 µg/mL produced 32.5% inhibition with B16-F10. Further, at Tyrosinase, the pIC50 was 5.41. The viability at 72 h, 20 ug/ml in series [1] stood at 66.7%.

Take `CC(=O)Oc1ccc2ccccc2c1/N=N/c1ccc(C2=N/C(=C/c3ccc(OC(F)(F)F)cc3)C(=O)O2)cc1`: the inhibition at 20 µg/mL in the series with B16-F10 is 35.6%. The negative logarithm of the IC50 (pIC50) at Tyrosinase is 5.52. In addition, the viability at 72 h, 20 ug/ml in series [1] is 68.7%.

As to `CN(C)c1ccc(/N=N/c2ccc(C3=N/C(=C/c4ccc(F)cc4)C(=O)O3)cc2)cc1`, in the series on B16-F10, testing at 20 µg/mL gave an inhibition of 35.7%. Moreover, on Tyrosinase, the pIC50 was 5.70. Moreover, in series [1], the viability at 72 h, 20 ug/ml turned out to be 71.9%.

Turning to `CN(C)c1ccc(/N=N/c2ccc(C3=N/C(=C/c4ccc(OC(F)(F)F)cc4)C(=O)O3)cc2)cc1`, in the series with B16-F10, the inhibition at 20 µg/mL amounted to 34.3%. Moreover, the negative logarithm of the IC50 (pIC50) at Tyrosinase was 5.84. Besides, the viability at 72 h, 20 ug/ml in series [1] worked out at 67.3%.
